Assay results as given in publication PMC8325362, “Drugs repurposed for COVID-19 by virtual screening of 6,218 drugs and cell-based assay” (Proceedings of the National Academy of Sciences of the …, 2021).
Where two headings read alike, the source gives them in different places.

Legend:
[1] = system: SARS-CoV-2; settings: assay validation with reference drugs
[2] = system: SARS-CoV-2; experiment: microbe, parasite or virus in culture; settings: Severe acute respiratory syndrome coronavirus 2, Vero, 24 h, read-out: SARS-CoV-2 IC50 in Vero cells
[3] = in vitro; settings: African green monkey
[4] = system: SARS-CoV-2; experiment: microbe, parasite or virus in culture; format: cell-based; settings: Severe acute respiratory syndrome coronavirus 2, Calu-3, 24 h
[5] = in vitro; settings: human
[6] = human, cited from earlier work

Question: Which “antiviral activity against SARS-CoV-2 in Vero cells” value [1] does the source give for CCN(CC)CCCC(C)Nc1ccnc2cc(Cl)ccc12 (stereo not drawn) [chloroquine] here?
Answer: showed antiviral activity

Question: Which “antiviral activity against SARS-CoV-2 in Vero cells” value [1] does the source give for Cc1cccc(C)c1OCC(=O)N[C@@H](Cc1ccccc1)[C@@H](O)C[C@H](Cc1ccccc1)NC(=O)[C@H](C(C)C)N1CCCNC1=O [lopinavir] here?
Answer: showed antiviral activity

Question: Which IC50 [2] does the source give for Cc1cc(O)c2c(=O)c3c(O)cc(O)c4c5c(O)cc(O)c6c(=O)c7c(O)cc(C)c8c1c2c(c34)c(c78)c65 [Hypericin] here?
Answer: 19.3 µM

Question: What about the CC50 [3] of the same compound?
Answer: > 50 µM

Question: And the IC50 ([4]; read-out: SARS-CoV-2 IC50 in Calu-3 cells)?
Answer: > 50 µM

Question: And the CC50 [5]?
Answer: > 50 µM

Question: What about the Cmax ([6]; read-out: Approx. Cmax (maximum serum concentration), oral) of the same compound?
Answer: ~0.008 µM

Question: Which results are given for O=C(Nc1cc(C(F)(F)F)cc(C(F)(F)F)c1)Nc1ccc(Br)cc1-c1nnn[nH]1 [NS-3728]?
Answer: IC50 [2]: 28.4 µM; CC50 at 24 h [3]: > 50 µM; IC50 ([4]; Calu-3 cells, MOI 0.5, 24 h): > 50 µM; CC50 at 24 h [5]: > 50 µM; Cmax ([6]; in vivo, po): ~36.5 µM
